Results reported in US20050272098A1, “Quantitation of endothelial microparticles” (priority 2004, published 2005).
Where “and” joins values, the source holds several entries; their conditions need not be identical. Equal values may be shown once.

How the values were obtained:
HCAEC = experiment: Release of CAM-specific EMP from TNF-α-activated HCAEC, two-color flow cytometry with TruCount beads; format: cell-based, human; details: 24 hours
Method: HCAECs were purchased from Cambrex Bio Science (Walkersville, Md.) and cultured according to the supplier's specifications. All experiments were performed on confluent cells. EC were treated with 10 ng/mL TNF-α alone or with the addition of fluvatstain (0.1 μmol/mL) or ROK inhibitor, Y-27632 (10 μmol M/L). Controls were un-treated. After 24 hours culture supernatants from flasks containing HCAEC were collected and centrifuged for 30 min at 17,570×g, (4° C.). Pellets were re-suspended in 1 mL of PBS and were analyzed on the same day. For single platform method, 3 μL each of FITC-conjugated and PE-conjugated monoclonal antibodies against the above mentioned CAMs plus 50 μL of re-suspended pellet were added to tubes (two antibodies/tube) preloaded with fluorescent TruCount™ bead lyophilized pellets (Becton Dickinson Biosciences, San Jose, Calif.). Tubes were incubated for 20 min at room temperature. Analysis of EMPs was performed using a FACScan Flow Cytometer (Becton Dickinson Biosciences, San Jose, Calif.). The EMPs were excited with 488 nm light from a 15 mW argon laser. Logarithmic green and red fluorescences of FITC and PE were measured through 530/30 nm and 585/42 nm bandpass filters, respectively. Data from 2,000 events were acquired and analyzed with the use of CELLQuest™ software (version 3.3, Becton Dickinson). The absolute number of EMPs was calculated from the appropriate dot plot values entered into the following formula: [formula] The total number of beads per tube is supplied by the manufacturer and varies among lot numbers. RhoA Activity Statistical analysis was performed using SPSS 10.0.7 statistical software (SPSS Inc., Chicago, Ill.). Values are stated as mean±SEM. One-way ANOVA was used to compare means from three or more groups. In cases where the data were not normally distributed, the Mann-Whitney rank sum test was used. A value of p<0.05 was considered as significant for all tests.

RhoA = RhoA activity pull-down assay (Rhotekin Rho Binding Domain agarose, western blot) in HCAEC; format: cell-based, human; details: TNF-α 10 ng/mL, 24 hours
Method: HCAECs were purchased from Cambrex Bio Science (Walkersville, Md.) and cultured according to the supplier's specifications. All experiments were performed on confluent cells. EC were treated with 10 ng/mL TNF-α alone or with the addition of fluvatstain (0.1 μmol/mL) or ROK inhibitor, Y-27632 (10 μmol M/L). Controls were un-treated. After 24 hours culture supernatants from flasks containing HCAEC were collected and centrifuged for 30 min at 17,570×g, (4° C.). Pellets were re-suspended in 1 mL of PBS and were analyzed on the same day. RhoA activity was determined by a pull-down assay. The cell lysates were incubated with Rhotekin Rho Binding Domain agarose for 45 minutes. The agarose beads were collected and electrophoresed in 8-16% SDS-PAGE gel (Cambrex, Rockland, Me.). GDP and GTP-labeling of cell lysates served as negative and positive controls, respectively. Western blotting was performed with RhoA antibody at a dilution of 1:200. The blot densities were analyzed with Mocha Image Analysis (version 1.2.10).

[1] = HCAEC, TNF-α 10 ng/mL alone, mean ± SEM, six experiments
[2] = HCAEC, TNF-α 10 ng/mL, versus control, not significant
[3] = HCAEC, TNF-α 10 ng/mL plus Fluvastatin 0.1 μM/L, mean ± SEM
[4] = HCAEC, TNF-α 10 ng/mL plus Fluvastatin 0.1 μM/L, mean ± SEM, listed as Flu
[5] = HCAEC, TNF-α 10 ng/mL plus Y-27632 (10 μmol M/L), mean ± SEM

Molecule: tumor necrosis factor-α [TNF-α]
- absolute count of EMP, CD31 (PECAM-1) (HCAEC; [1]): 233±77 ×10^6/mL
- absolute count of EMP, CD51 (Vitronectin) (HCAEC; [1]): 76.4±46 ×10^6/mL and 76 ± 46 ×10^6/mL
- absolute count of EMP, CD 54 (ICAM-1) (HCAEC; [1]): 129 ± 44 ×10^6/mL
- absolute count of EMP, CD62E (ELAM) (HCAEC; [1]): 99 ± 3 ×10^6/mL
- absolute count of EMP, CD105 (Endoglin) (HCAEC; [1]): 124±34 ×10^6/mL
- increase of CD54 positive EMP (HCAEC; [2]): 57%
- increase of CD62 positive EMP (HCAEC; [2]): 15%
- RhoA activation (RhoA): induced

Molecule: CC(C)n1c(/C=C/C(O)CC(O)CC(=O)O)c(-c2ccc(F)cc2)c2ccccc21 (centres unmarked) [Fluvastatin]
- absolute count of EMP, CD51 (Vitronectin) (HCAEC; [3]): 43 ±7.3 ×10^6/mL
- absolute count of EMP, CD62E (ELAM) (HCAEC; [3]): 80 ± 7 ×10^6/mL
- absolute count of EMP, CD105 (Endoglin) (HCAEC; [3]): 45±7.6 ×10^6/mL
- absolute count of EMP, CD31 (PECAM-1) (HCAEC; [4]): 231 ± 80 ×10^6/mL
- absolute count of EMP, CD51 (Vitronectin) (HCAEC; [4]): 43 ± 7 ×10^6/mL
- absolute count of EMP, CD 54 (ICAM-1) (HCAEC; [4]): 125 ± 35 ×10^6/mL
- absolute count of EMP, CD105 (Endoglin) (HCAEC; [4]): 45 ± 8 ×10^6/mL
- absolute count of EMP, CD106 (VCAM-1) (HCAEC; [4]): 167 ± 45 ×10^6/mL
- suppression of CD62+ EMP (HCAEC; TNF-α-activated HCAEC, versus TNF-α alone, not statistically significant): 19%

Molecule: C[C@@H](N)[C@H]1CC[C@H](C(=O)Nc2ccncc2)CC1 [Y-27632]
- absolute count of EMP, CD51 (Vitronectin) (HCAEC; [5]): 44 ± 10 ×10^6/mL
- absolute count of EMP, CD62E (ELAM) (HCAEC; [5]): 65 ± 13 ×10^6/mL
- absolute count of EMP, CD105 (Endoglin) (HCAEC; [5]): 56±13 ×10^6/mL
